Data reported in article PMC8397634 (Journal of Natural Medicines, 2021).
Values joined by “and” are separate entries in the source; they are usually repeats but may differ in a detail not shown here. Identical values can stand only once. “Also recorded” adds a separate entry of the source. Like-named read-outs stand apart in the source and are kept apart here.

What was measured:
[1] = system: zebrafish (Danio rerio; strain AB); settings: for Time spent at the bottom of the tank during NTT / anxiolytic-like effect: 30 mg/L
Procedure: The NTT conditions closely matched the most commonly used conditions described by. In brief, adult male and female wild-type zebrafish were treated with the compounds for 20 min in a final volume of 50 mL in a 250-mL treatment beaker, one fish at a time. The fish were briefly rinsed in fresh system water, and then immediately transferred to a trapezoidal tank (14.6-cm height × 5.5-cm width × 27.9-cm top length and × 23.6-cm bottom length) filled with 1.5 L system water. The behavior of the fish was monitored for the next 5 min using the Noldus EthoVision XT system (Wageningen, Netherlands), with the camera placed approximately 1 m from the test tank. The tanks were uniformly illuminated from above at approximately 200 lx, reported to be the optimal illumination condition for NTT [23]. Background noise was kept at a minimum during the test. All experimental parameters were monitored closely and kept as consistent as possible throughout the study. The part of the tank filled with water (11.5-cm height) was virtually divided into top, center, and bottom of equal heights (approximately 3.8 cm per segment) for the analyses. The average time spent at the top and bottom portions of the tank was analyzed to determine the anxiety-like behavior of fish. The average total distance traveled and freezing time (as defined by a complete cessation of movement except for gills and eyes) were calculated to determine the effects of the compounds on the general behavior of fish. The analyses were conducted for 1-min time bins. To account for any day-to-day variability in fish behavior, fish treated with vehicle were tested on the same day as the compounds. […] A minimum of 12 fish (6 females and 6 males) per condition were used for the study. The actual sample size per condition is indicated in Online Resource 1. […] The experimenters were blind to the test conditions. The NTT was validated with buspirone, a clinical anxiolytic drug, as previously described.
If not, the concentration was reduced until no obvious signs of tolerability problems were observed. […] The concentrations were calculated based on the free base molecular weight.
Two-way repeated measures analysis of variance (ANOVA) with Dunnett post hoc was used for the 1-min binned analysis of the zebrafish NTT data. Treatment was one factor, and time was the second factor. […] Thus, male and female datasets were combined for the final analyses. […] The EC50 values were determined by applying the nonlinear regression analysis. All analyses were conducted using GraphPad Prism v8.2.1 (GraphPad Software, San Diego, CA, USA).

α4β2 nAChRs [2] = molecular target: T1, α4β2 nAChRs (Homo sapiens, UniProt P17787+P43681); experiment: In vitro nAChR functional assay (automated patch-clamp, CHO cells); assay type: cell-based; settings: for Emax: CHO, read-out: % activation of α4β2 nAChR (normalized to nicotine)
T1 sequence (P43681 29-627 limits assumed): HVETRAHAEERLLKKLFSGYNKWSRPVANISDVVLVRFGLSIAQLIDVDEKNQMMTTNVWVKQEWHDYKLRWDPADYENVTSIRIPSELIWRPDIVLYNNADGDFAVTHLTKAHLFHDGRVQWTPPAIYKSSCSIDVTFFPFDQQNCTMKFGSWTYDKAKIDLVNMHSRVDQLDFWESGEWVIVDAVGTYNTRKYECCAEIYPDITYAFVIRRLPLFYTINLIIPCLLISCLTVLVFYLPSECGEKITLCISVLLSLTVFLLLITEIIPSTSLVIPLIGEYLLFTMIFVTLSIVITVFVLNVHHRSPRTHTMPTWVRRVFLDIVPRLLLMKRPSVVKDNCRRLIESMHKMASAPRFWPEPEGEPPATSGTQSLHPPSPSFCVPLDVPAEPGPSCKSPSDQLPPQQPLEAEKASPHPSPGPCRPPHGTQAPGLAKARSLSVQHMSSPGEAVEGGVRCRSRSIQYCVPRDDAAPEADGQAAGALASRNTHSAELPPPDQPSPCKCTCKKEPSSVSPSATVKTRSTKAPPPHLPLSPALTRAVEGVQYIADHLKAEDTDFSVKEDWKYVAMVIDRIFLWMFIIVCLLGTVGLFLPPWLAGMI
T1 sequence (P17787 26-502): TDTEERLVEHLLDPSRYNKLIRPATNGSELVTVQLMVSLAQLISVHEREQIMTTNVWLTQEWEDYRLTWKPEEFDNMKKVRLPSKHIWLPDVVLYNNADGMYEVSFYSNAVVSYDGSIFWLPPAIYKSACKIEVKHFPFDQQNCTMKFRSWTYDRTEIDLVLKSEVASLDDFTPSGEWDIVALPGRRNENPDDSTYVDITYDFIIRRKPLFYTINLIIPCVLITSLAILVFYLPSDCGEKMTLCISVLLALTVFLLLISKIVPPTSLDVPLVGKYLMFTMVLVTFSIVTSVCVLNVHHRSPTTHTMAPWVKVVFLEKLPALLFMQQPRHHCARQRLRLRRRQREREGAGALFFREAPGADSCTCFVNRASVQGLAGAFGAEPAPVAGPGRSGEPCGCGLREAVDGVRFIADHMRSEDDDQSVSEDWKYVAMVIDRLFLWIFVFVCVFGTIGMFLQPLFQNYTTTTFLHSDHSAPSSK
Procedure: Electrophysiological responses were recorded using an automated patch-clamp Patchliner Octo® system (Nanion Technologies, Munich, Germany) equipped with two EPC-10 Quadro patch-clamp amplifiers (HEKA Elektronik, Lambrecht, Germany) as described previously. Chinese hamster ovarian (CHO) cells stably expressing human α4β2 nAChRs (Charles River Laboratories, Wilmington, MA, USA) were used. All experiments were performed at room temperature (24 °C) and repeated at least three times. Data were analyzed using Patchmaster software (HEKA Elektronik). Offline data analysis was performed in Apache OpenOffice™ (v4.1.2; […]). Igor Pro software (v6.2.2.2; WaveMetrics, Lake Oswego, OR, USA) was used to determine EC50 values. […] The average values were then fitted to the Hill equation: I=Baseline+X^∧nH(Imax-Baseline)/X^∧nH+EC50^∧nH, where I is the current response, Baseline is the minimal current response, X is the agonist concentration, nH is the Hill coefficient, Imax is the maximal current, and EC50 is the agonist concentration producing half-maximal activation. […]

[3] = Brain bioavailability assay in zebrafish (UPLC-HRMS of brain homogenate); assay type: in vivo, Danio rerio; settings: zebrafish brain after 20-min exposure, linear relationship assumed, mean ± SEM; for concentration at 20 min: both sexes, zebrafish (Danio rerio), 1 mg/L, read-out: Relative brain level per 1 mg/L compound
Procedure: Four fish (2 males and 2 females) per compound were used to determine the brain bioavailability of the compounds. Immediately after the 20-min compound treatment, the zebrafish were rinsed briefly to remove excessive compound on their body and terminated with 250 mg/L tricaine (CAS No. 886-86-2; Sigma). The fish were decapitated at the level of the gills using a surgical knife. The head was turned dorsal side down, and soft tissue was removed from the ventral side of the skull until the base of the skull was exposed. The skull was broken open and the bone from the ventral side of the brain was removed. The brain was then placed in a microcentrifuge tube, weighed, snap-frozen in liquid nitrogen, and stored at – 80 °C until the analysis.
Briefly, on the day of analysis, the brain samples were defrosted, resuspended in a methanol solution (2:1 [v/v] methanol:MilliQ water), and homogenized with vigorous agitation and ultrasonication (5 min each). The homogenate was centrifuged at 15,000 × rpm for 10 min, and the supernatant was analyzed using a UPLC-Q Exactive Orbitrap-HRMS system (Thermo Fisher Scientific™, Bremen, Germany). Chromatographic separation was achieved on a Synergi™ 4-µm Hydro-RP 80 Å, L.C. Column (250 × 4.6 mm; Phenomenex Inc., Torrance, CA, USA) with 0.1% formic acid in water (mobile phase A) and 0.1% formic acid in acetonitrile (mobile phase B). A gradient method at a 500 µL/min flow rate was applied as follows: (1) 5% B for 1 min, and (2) increase to 95% B over 7 min and hold for 2 min. The injection volume was 5 μL. The mass spectrometer was operated in electrospray positive mode (ESI, Thermo Fisher Scientific), while data acquisition was performed using the parallel reaction monitoring (PRM) and full scan modes. The source settings were set as follows: sheath gas flow rate = 60 psi; aux gas flow rate = 20 arbitrary units; spray voltage = 3.5 kV; capillary temperature = 280 °C; and sweep gas flow rate = 1. The full scan mode parameters were set as follows: resolution = 35,000 FWHM at 200 m/z; AGC target = 1E6; maximum injection time = 110 ms; and scan range = 100–350 m/z. The chromatographic and Orbitrap MS parameters for PRM analysis were the same as those in the full scan mode, except for: AGC target = 2E5; maximum IT = 60 ms; and resolution = 17,500 FWHM at 200 m/z. The XCalibur™ v4.0.27.19 software (Thermo Fisher Scientific) and TraceFinder™ v4.1 Forensic (Thermo Fisher Scientific, San José, CA, USA) were used for system control and data processing, respectively. The Q Exactive 2.8 SP 1 software (Thermo Fisher Scientific) was used to control the mass spectrometer.

α7 nAChR = settings: cited from earlier work
muscle-type nAChR = molecular target: T2, muscle-type nAChR (Homo sapiens, UniProt P02708+P07510+Q07001); experiment: Muscle-type nAChR radioligand binding (target profiling); settings: 10 µM single concentration; effect greater than 50% considered significant
T2 construct: TE671 cells; host or cells: TE671 cells (endogenous)
T2 sequence (P02708 21-457): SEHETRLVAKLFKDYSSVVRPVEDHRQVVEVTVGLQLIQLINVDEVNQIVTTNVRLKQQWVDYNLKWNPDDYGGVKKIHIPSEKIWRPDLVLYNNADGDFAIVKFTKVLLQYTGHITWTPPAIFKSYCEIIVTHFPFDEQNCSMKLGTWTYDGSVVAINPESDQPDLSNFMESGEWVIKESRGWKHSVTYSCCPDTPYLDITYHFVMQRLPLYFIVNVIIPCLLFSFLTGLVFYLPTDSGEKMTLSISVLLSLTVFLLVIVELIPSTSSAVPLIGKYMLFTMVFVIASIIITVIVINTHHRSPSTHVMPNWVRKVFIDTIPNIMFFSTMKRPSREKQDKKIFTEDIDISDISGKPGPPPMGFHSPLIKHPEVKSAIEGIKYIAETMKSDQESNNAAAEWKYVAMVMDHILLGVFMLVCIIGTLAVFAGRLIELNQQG
T2 sequence (Q07001 22-517): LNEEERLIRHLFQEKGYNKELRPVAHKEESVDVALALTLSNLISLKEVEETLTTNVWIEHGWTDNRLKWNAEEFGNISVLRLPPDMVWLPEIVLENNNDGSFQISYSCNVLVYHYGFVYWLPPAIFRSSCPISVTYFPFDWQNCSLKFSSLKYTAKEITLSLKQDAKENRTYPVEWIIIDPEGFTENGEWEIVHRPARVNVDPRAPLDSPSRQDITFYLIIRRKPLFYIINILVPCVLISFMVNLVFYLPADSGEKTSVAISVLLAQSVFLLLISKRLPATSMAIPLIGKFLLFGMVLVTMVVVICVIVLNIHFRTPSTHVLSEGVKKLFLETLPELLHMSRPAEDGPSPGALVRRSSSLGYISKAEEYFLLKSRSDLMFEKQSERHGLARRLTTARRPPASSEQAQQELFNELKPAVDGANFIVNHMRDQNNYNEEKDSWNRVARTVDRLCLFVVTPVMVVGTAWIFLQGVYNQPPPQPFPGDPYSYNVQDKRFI
T2 sequence (P07510 23-517): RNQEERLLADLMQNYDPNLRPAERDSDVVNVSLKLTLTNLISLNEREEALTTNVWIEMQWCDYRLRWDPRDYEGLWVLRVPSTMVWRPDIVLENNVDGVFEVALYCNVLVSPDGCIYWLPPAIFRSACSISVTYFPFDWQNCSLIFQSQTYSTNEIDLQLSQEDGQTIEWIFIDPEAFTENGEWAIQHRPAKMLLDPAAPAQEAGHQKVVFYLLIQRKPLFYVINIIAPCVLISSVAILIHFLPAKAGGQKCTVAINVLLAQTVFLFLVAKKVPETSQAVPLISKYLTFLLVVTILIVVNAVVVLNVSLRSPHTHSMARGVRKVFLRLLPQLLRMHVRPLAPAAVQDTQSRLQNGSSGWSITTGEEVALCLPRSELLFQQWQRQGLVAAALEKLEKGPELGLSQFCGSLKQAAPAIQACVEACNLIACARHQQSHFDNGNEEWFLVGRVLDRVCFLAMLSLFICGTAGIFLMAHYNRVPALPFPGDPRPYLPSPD
Procedure: (§1) All binding and functional assays for molecular target characterization were conducted by Eurofins Cerep SA (Celle-Lévescault, France) and Eurofins Panlabs Discovery Services Taiwan, Ltd. (New Taipei City, Taiwan) using their standard in vitro binding and functional assays (Online Source 2). The radioligand displacement binding assays employed the gold-standard filtration method using membrane preparations from stable cell lines expressing human or rodent target proteins to determine the interaction of the compounds with specific receptors, channels, and transporters. For this purpose, the competitive binding of test compounds against a [^125I]-, [^3H]-, or [^35S]-labeled agonist and/or antagonist was determined. The specific list of radiolabeled ligands and experimental conditions are summarized in Online Source 2. A single concentration of each compound (10 µM in 0.1% DMSO) was used for the screen. […] Negative values were considered to be an artifact arising from, for example, compounds interfering with the assay readout.
(§2) Assay Source Ligand Conc. Kd Non Specific Incubation Detection Bibl.

[4] = system: other molecular targets (175 in vitro binding and enzymatic assays); experiment: In vitro molecular target profiling (175 binding and enzymatic assays); settings: 10 µM single concentration; 175 assays; effect greater than 50% considered significant
Procedure: as §1
3.1. Experimental Conditions
In Vitro Pharmacology: Binding Assays
as §2

α4β2 nAChRs [5] = molecular target: T1, α4β2 nAChRs; experiment: In vitro α4β2 nAChR radioligand displacement binding assay; design: host or cells: SH-SY5Y cells (human recombinant), membrane preparation
Procedure: as §1, §2

[6] = CHO cells stably expressing human α4β2 nAChRs, patch clamp, 24 °C, mean ± SEM (Fig. 1), read-out: α4β2 nAChR EC50
[7] = all concentrations tested, 20-min treatment, 5-min test, vs vehicle control
[8] = other: immersion in compound solution (waterborne exposure)

In the case of `O=C(c1ccc(Cl)o1)N1CC2CNCC2C1` (centres unmarked) [AZD1446, 3-(5-chloro-2-furoyl)-3,7-diazabicyclo[3.3.0]octane, reference compound], the “Time spent at the bottom of the tank during NTT / anxiolytic-like effect” value ([1]; 20-min treatment) is reported as “decreased the time spent at the bottom at 2 and 4 min”, the “Time spent at the bottom of the tank during NTT” value ([1]; 100 mg/L, 20-min treatment) is reported as “decreased the time spent at the bottom for the first 2 min” and the “Time spent at the top of the tank during NTT” value ([1]; 30 and 100 mg/L, 20-min treatment) is reported as “increased the time spent at the top”. For the same compound, the “Size of the reduction of anxiety-like behavior in NTT” value ([1]; lower two concentrations (30 and 100 mg/L)) was ~ 10%, the EC50 (α4β2 nAChRs [2]; [6]) was 7.9 µM and < 8 µM and the Emax (α4β2 nAChRs [2]) was 100%. For the same compound, the “Relative brain level per 1 mg/L compound” value [3] was “could not be detected; also recorded: at the limit of detection; also recorded: No value^d”.

In the case of `CC(=O)OCC[N+](C)(C)C` [Acetylcholine, reference compound], the “Time spent at the bottom of the tank during NTT” value [1, 7] is reported as “no effect”, the “% activation of α4β2 nAChR (normalized to nicotine)” value (α4β2 nAChRs [2]) is reported as 100% and the concentration at 20 min [3, 8] is reported as 20 ± 10 ng/g.

For `c1cncc([C@@H]2CCCCN2)c1` [Anabasine, ( +)-Anabasine], the “Time spent at the bottom of the tank during NTT” value [1, 7] was “no significant effect”, the Emax (α4β2 nAChRs [2]) was 7% and the “effectiveness in activating α4β2 nAChRs in vitro” value (α4β2 nAChRs [2]; preliminary data) was 8 ± 4%. The EC50 (α4β2 nAChRs [2]; α4β2 nAChR EC50, CHO cells stably expressing human α4β2 nAChRs, patch clamp, 24 °C, mean ± SEM (Fig. 1)) was < 8 µM and 0.9 µM, the “α7 nAChR activation relative to maximum receptor activation by nicotine or anatabine” value (α7 nAChR) was “approximately a third” and the “α7 nAChR agonist activity” value (α7 nAChR; ref 2 (Alijevic, et al.)) was “weak α7 nAChR agonist”. For the same compound, the concentration at 20 min ([3]; in vivo) was 230 ± 70 ng/g.

For `O=C1CC2(CCCC2)CC(=O)N1CCCCN1CCN(c2ncccn2)CC1` [Buspirone, buspirone, reference compound], the “Time spent at the bottom of the tank during NTT / anxiolytic-like effect” value ([1]; 20-min treatment) was “consistent anxiolytic-like effect across all time points”, the “Freezing response during NTT” value ([1]; 100 mg/L) was “increased the freezing response at 1, 2, and 5 min” and the “Total distance traveled during NTT” value ([1]; 100 mg/L) was “reduced the total distance traveled at 1, 4, and 5 min”. For the same compound, the “Time spent at the bottom of the tank during NTT” value [1, 7] was “either reduced the time spent on the bottom or increased the time spent on the top at multiple time points”.

With `CN1C(=O)CC[C@H]1c1cccnc1` [Cotinine, (–)-cotinine] the “Binding to muscle-type nAChR in target profiling” value (muscle-type nAChR) was “specific binding”, the “Time spent at the bottom of the tank during NTT” value ([1]; 100 mg/L, 20-min treatment) was “reduced the overall time spent at the bottom” and the “Concentration needed for anxiolytic-like effect relative to nicotine” value ([1]; NTT) was over 300 fold. For the same compound, the EC50 (α4β2 nAChRs [2]; [6]) was 85.3 µM, the Emax (α4β2 nAChRs [2]) was 59% and the “Binding to or regulation of other molecular targets” value [4] was “did not bind or regulate the activities of other molecular targets”. The “Binding to α4β2 nAChR in target profiling” value (α4β2 nAChRs [5]; 10 µM single concentration, effect greater than 50% considered significant) was “specific binding”, the IC50 (α4β2 nAChRs [5]; n = 3, read-out: α4β2 nAChR IC50 (binding)) was 9.9 µM and the concentration at 20 min [3, 8] was 20 ± 10 ng/g. The “Relative brain level per 1 mg/L compound” value [3] was “less than 0.1 ng/mg tissue”.

In the case of `CNCC/C=C/c1cccnc1` [Metanicotine, metanicotine], the “Time spent at the bottom of the tank during NTT” value [1, 7] is reported as “no significant effect”, the Emax (α4β2 nAChRs [2]) is reported as 100% and the EC50 (α4β2 nAChRs [2]; α4β2 nAChR EC50) is reported as 19.5 ± 6.4 µM. For the same compound, the concentration at 20 min ([3]; in vivo) was 70 ± 10 ng/g and the “Relative brain level per 1 mg/L compound” value [3] was “less than 0.1 ng/mg tissue”.

In the case of `CN1CC=CC[C@H]1c1cccnc1` [Methylanatabine, (S)-N-methylanatabine], the “Concentration effective in reducing anxiety-like behavior in NTT” value ([1]; 20-min treatment) is reported as 10 mg/L, the “Time spent at the bottom of the tank during NTT” value ([1]; highest concentration tested (10 mg/L), 20-min treatment) is reported as “anxiolytic-like effect” and the EC50 (α4β2 nAChRs [2]; [6]) is reported as under 8 µM. It also gave an Emax (α4β2 nAChRs [2]) of 26%, an EC50 (α4β2 nAChRs [2]; α4β2 nAChR EC50) of 6.2 µM and an IC50 (α4β2 nAChRs [5]) of 0.891 µM. The concentration at 20 min ([3]; in vivo) was 1390 ± 560 ng/g and the “Relative brain level per 1 mg/L compound” value [3] was about 1 ng/mg tissue.

Compound `c1cnc2cc3c(cc2n1)[C@@H]1CNC[C@H]3C1` [Varenicline, reference compound] has a concentration at 20 min [3, 8] of 450 ± 160 ng/g.

With ( ±)-nornicotine the “Time spent at the bottom of the tank during NTT” value [1, 7] was “no significant effect” and the “% activation of α4β2 nAChR (normalized to nicotine)” value (α4β2 nAChRs [2]) was 44%.
